Source: the NIST ThermoML archive (doi:10.1016/j.jct.2011.03.019)

Conditions: Liquid, Vibrating tube method

CCCC[n+]1cccc(C)c1.F[B-](F)(F)F [1-butyl-3-methylpyridinium tetrafluoroborate]
Conditions	mass density [kg/m3]
283.12 K, 2024 kPa	1194.21
283.13 K, 5410 kPa	1195.69
283.14 K, 10608 kPa	1197.94
283.16 K, 101 kPa	1192.91
283.16 K, 20395 kPa	1202.09
283.16 K, 29989 kPa	1206.06
283.16 K, 40399 kPa	1210.24
283.16 K, 50021 kPa	1214
283.16 K, 59880 kPa	1217.75
283.16 K, 70001 kPa	1221.48
283.16 K, 80055 kPa	1225.07
283.16 K, 89979 kPa	1228.5
283.16 K, 99226 kPa	1231.6
293.13 K, 2373 kPa	1187.65
293.15 K, 101 kPa	1185.85
293.15 K, 5192 kPa	1188.92
293.15 K, 19915 kPa	1195.44
293.15 K, 29975 kPa	1199.74
293.15 K, 40033 kPa	1203.9
293.15 K, 49990 kPa	1207.91
293.15 K, 60026 kPa	1211.82
293.15 K, 69993 kPa	1215.58
293.15 K, 90002 kPa	1222.75
293.15 K, 99008 kPa	1225.82
293.16 K, 79917 kPa	1219.2
293.17 K, 10105 kPa	1191.13
298.13 K, 101 kPa	1182.41
298.15 K, 1023 kPa	1183.65
298.15 K, 5014 kPa	1185.49
298.15 K, 10024 kPa	1187.78
298.15 K, 19956 kPa	1192.22
298.15 K, 29784 kPa	1196.48
298.15 K, 39954 kPa	1200.76
298.15 K, 49921 kPa	1204.82
298.15 K, 59784 kPa	1208.71
298.15 K, 69521 kPa	1212.43
298.15 K, 79326 kPa	1216.05
298.15 K, 89784 kPa	1219.77
298.15 K, 99965 kPa	1223.26
313.13 K, 101 kPa	1172.19
313.13 K, 10051 kPa	1177.79
313.15 K, 2471 kPa	1174.15
313.15 K, 5142 kPa	1175.44
313.15 K, 39901 kPa	1191.32
313.15 K, 50020 kPa	1195.6
313.15 K, 59990 kPa	1199.68
313.15 K, 70046 kPa	1203.63
313.15 K, 79830 kPa	1207.34
313.16 K, 30021 kPa	1186.99
313.16 K, 89989 kPa	1211.04
313.17 K, 19949 kPa	1182.42
313.17 K, 99194 kPa	1214.26
323.14 K, 101 kPa	1165.48
333.13 K, 2503 kPa	1160.47
333.14 K, 101 kPa	1158.81
333.14 K, 39760 kPa	1178.53
333.15 K, 20056 kPa	1169.28
333.15 K, 29979 kPa	1174.02
333.15 K, 79731 kPa	1195.25
333.15 K, 89986 kPa	1199.09
333.15 K, 99773 kPa	1202.59
333.16 K, 5448 kPa	1161.99
333.16 K, 50021 kPa	1183.09
333.16 K, 70003 kPa	1191.43
333.17 K, 10715 kPa	1164.66
333.17 K, 60243 kPa	1187.44
343.14 K, 101 kPa	1152.1
353.12 K, 6509 kPa	1148.81
353.13 K, 8955 kPa	1150.12
353.14 K, 2790 kPa	1146.79
353.15 K, 101 kPa	1145.3
353.15 K, 90011 kPa	1186.9
353.15 K, 99259 kPa	1190.28
353.16 K, 29979 kPa	1160.91
353.16 K, 39909 kPa	1165.7
353.16 K, 50013 kPa	1170.38
353.16 K, 60153 kPa	1174.86
353.16 K, 69979 kPa	1179.02
353.16 K, 80426 kPa	1183.23
353.17 K, 21342 kPa	1156.58
363.14 K, 101 kPa	1138.4
373.12 K, 60192 kPa	1162.13
373.13 K, 50003 kPa	1157.47
373.14 K, 39996 kPa	1152.66
373.14 K, 70039 kPa	1166.42
373.14 K, 99035 kPa	1177.8
373.15 K, 5373 kPa	1134.29
373.15 K, 29979 kPa	1147.62
373.15 K, 90014 kPa	1174.46
373.16 K, 2495 kPa	1132.64
373.16 K, 10198 kPa	1137.01
373.16 K, 20336 kPa	1142.55
373.16 K, 80221 kPa	1170.63
393.15 K, 10222 kPa	1123.08
393.15 K, 20024 kPa	1128.69
393.15 K, 30013 kPa	1134.16
393.15 K, 89993 kPa	1161.76
393.15 K, 99831 kPa	1165.43
393.16 K, 40133 kPa	1139.44
393.16 K, 49970 kPa	1144.34
393.16 K, 60110 kPa	1149.13
393.16 K, 70029 kPa	1153.57
393.16 K, 80159 kPa	1157.85
393.17 K, 2485 kPa	1118.49
393.17 K, 5300 kPa	1120.18
